These are literature values, as cited in US4127531A, “Novel hexapeptides, intermediates therefor, and compositions and methods employing said hexapeptides” (priority 1977, dated 1978).

Series [1] has as its system partially purified brain opiate receptor sites.
The test system of another series is rat. Conditions: injected directly into the brain of the rat.

For the substance “H-Tyr-Gly-Gly-Phe-Met-OH [methionine enkephalin]”, the “binding to partially purified brain opiate receptor sites” value in series [1] is listed as “binds stereo-specifically”. For the same substance, the analgesic activity result with rat is reported as “only weak analgesic agent of short duration”.
